Columns and labels:
MUTYH = target: T1, MUTYH (Homo sapiens, UniProt Q9UIF7); experiment: Cellular thermal shift assay (CETSA), MUTYH; type: binding; conditions: MGC-803 cells, 50 µM compound, heated 10 min from 43 to 61 °C
T1 construct: endogenous in cells; host or cells: MGC-803 (human gastric cancer cell line)
Description: Cellular thermal shift assay (CETSA), also known as the target engagement assay was one-way to detect the intracellular interaction ability of compounds with its specific target. Firstly, cells were seeded into T75 culture flasks and cultured overnight. Then, the cells were treated with cell media containing 1‰ DMSO as blank control and candidate compounds for 3–5 h. Next, the cells were collected by centrifugation and resuspended by PBS, then the cells were aliquoted into 7 PCR tubes and heated using PCR instrument for 10 min from 43 to 61 °C. After that, cells were lysed using liquid nitrogen and three repeated cycles of freeze-thawing. Then, samples were centrifuged at 12,000 × g for 20 min at 4 °C. Supernatants were denatured at 100 °C for 10 min and kept at −20 °C until Western Blot analysis.

HL-7702 cells = experiment: MTT cell viability, HL-7702; type: cell-based; conditions: Homo sapiens, L02, normal liver cell line, 72 h
Description: (§1) The cell viability was determined by 3-(4,5-dimethylthiazol-2-yl)-2,5-diphenyltetrazolium bromide (MTT) assay, according to the manufacturer’s instructions. 1 day before treatment, cells were seeded into 96-well plates at a concentration of 2–5 × 10^3 cells per well, followed by treatment with fresh medium containing serial dilutions of candidate compounds for 48 or 72 h, 20 μL of MTT solution (5 mg/mL in PBS) was then added to each well. After treatment, the plates were incubated at 37 °C for another 4 h. Subsequently, the MTT solution was removed and 150 μL of DMSO was added to each well for 10 min, and then the plates were shaken to dissolve the dark blue crystal (formazan), the absorbance was detected at 570 nm using a BioTek microplate reader. The data were analyzed using SPSS 20 software.

Het-1A cells = experiment: MTT cell viability, Het-1A; type: cell-based; conditions: Homo sapiens, normal esophageal epithelial cell line, 72 h
Description: as §1

ZIP177 cells = experiment: MTT cell viability, ZIP177; type: cell-based; conditions: Homo sapiens, liver cancer cell line, 72 h
Description: as §1

KYSE-450 cells = experiment: MTT cell viability, KYSE-450; type: cell-based; conditions: Homo sapiens, esophageal cancer cell line, 72 h
Description: as §1

MKN45 cells = experiment: MTT cell viability, MKN45; type: cell-based; conditions: Homo sapiens, MKN-45, gastric cancer cell line, 72 h
Description: as §1

MCF-7 cells = experiment: MTT cell viability, MCF-7; type: cell-based; conditions: Homo sapiens, MCF7, breast cancer cell line, 72 h
Description: as §1

[1] = system: MGC-803 cells-derived xenograft; experiment: MGC-803 cells-derived xenograft model; type: in vivo, BALB/c nude mice; design: average tumor volumes in comparison with oil treatment group: scale not given here; conditions: 40 mg/kg, gavage once a day for 25 days
Description: All animal experiments were conducted according to the guidelines of the Institutional Animal Care and Use Committee of Zhengzhou University. Four or five-week-old female BALB/c nude mice, weighing 18–21 g were purchased from Hunan Slack Scene of Laboratory Animal Company, LTD (Hunan, China). They received abundant food and water and were housed in a laminar flow under sterilized condition. 200 µL MGC-803 cells at the concentration of 5 × 10^7/mL were injected into the right scapular region of the mice. When most of the tumor volumes reached 100 mm^3, mice were randomly divided into oil (solvent) group and MI-743(40 mg/kg) treatment group. Then, they received gavage daily for 25 days. The body weight was weighed every 2 days and the tumor volumes were measured every 4 days. At the 25th day, the tumors were surgically removed and weighed. The tumor size was determined by vernier caliper measurements and the tumor and major organs were fixed in 4% buffered paraformaldehyde and paraffin-embedded for hematoxylin and eosin (HE) staining, immunohistochemistry (IHC) and TUNEL assay.

MGC-803 cells = experiment: Western blot of DNA damage response markers, MGC-803; type: cell-based, human; conditions: MGC-803, 1-12 µM 48 h or 12 µM 12-48 h, dose and time-dependently, vs DMSO
Description: MGC-803, HGC-27 and GES-1 cells were seeded into 100mm^2 plastic dishes(1 × 10^5 cells/well) and incubated overnight prior to the addition of compound MI-743 at 1, 2, 4, 8 and 12 µM for 48 h or compound MI-743 at 12 µM for 12, 24, 36 and 48 h, respectively. After treatment, the cells were harvested and lysed with RIPA cell lysis buffer, containing protease inhibitor cocktail. Then, the cells were centrifuged at 12,000 × g for 20 min at 4 °C. The supernatant were collected and the concentration was determined by a Bicinchoninic Acid (BCA) Protein Assay kit, denatured at 100 °C for 10 min, separated by SDS−PAGE and transferred to 0.22 μm nitrocellulose membranes. After blocking by PBS containing 5% skim milk for 2 h at room temperature, the membranes were probed with the appropriate primary antibodies (1:500~1:1000) at 4 °C overnight, followed by the treatment of horseradish-peroxidase-conjugated secondary antibody (1:10000) at room temperature for 2 h. Subsequently, the membranes were washed with PBST, examined by enhanced chemiluminescence and the data was determined using Image J software.

T1 sequence (Q9UIF7 whole entry): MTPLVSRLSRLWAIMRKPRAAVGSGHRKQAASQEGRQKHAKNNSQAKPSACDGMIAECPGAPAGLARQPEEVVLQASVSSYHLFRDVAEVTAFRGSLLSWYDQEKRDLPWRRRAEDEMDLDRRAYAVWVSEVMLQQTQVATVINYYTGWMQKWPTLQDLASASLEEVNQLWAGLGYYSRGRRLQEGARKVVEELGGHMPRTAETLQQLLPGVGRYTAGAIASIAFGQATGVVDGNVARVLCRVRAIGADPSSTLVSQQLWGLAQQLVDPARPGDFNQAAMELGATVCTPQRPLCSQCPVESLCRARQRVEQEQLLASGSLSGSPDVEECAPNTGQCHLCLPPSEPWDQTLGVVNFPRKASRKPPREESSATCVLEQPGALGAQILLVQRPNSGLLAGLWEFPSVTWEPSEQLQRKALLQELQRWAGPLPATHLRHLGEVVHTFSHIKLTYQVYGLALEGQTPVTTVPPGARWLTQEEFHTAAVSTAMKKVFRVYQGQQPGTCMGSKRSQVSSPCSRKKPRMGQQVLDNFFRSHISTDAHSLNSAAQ

## C#CCSc1nc(NNC(N)=S)c(C#N)c(-c2ccc3oc(=O)ccc3c2)n1 [MI-743, 2-(5-cyano-6-(2-oxo-2H-chromen-6-yl)-2-(prop-2-yn-1-ylthio)pyrimidin-4-yl)hydrazine-1-carbothioamide]
MUTYH
  temperature at which MUTYH became unstable: 49 °C
HL-7702 cells
  IC50: 20.1 ± 1.76 µM
Het-1A cells
  IC50: 19.2 ± 1.89 µM
ZIP177 cells
  IC50: 9.36 ± 0.92 µM
KYSE-450 cells
  IC50: 6.69 ± 0.82 µM
MKN45 cells
  IC50: 16 ± 1.18 µM
MCF-7 cells
  IC50: 9.67 ± 1.01 µM
[1]
  average tumor volumes in comparison with oil treatment group: 33.54%
[1]; vs oil group
  expression levels of ATMpS1981 and 8-oxo-dG in tumor tissue (immunohistochemistry): sharply increased
MGC-803 cells
  expression levels of p53pS15, ATMpS1981 and p21: significantly increased

From article PMC6547740, “Potent and specific MTH1 inhibitors targeting gastric cancer” (Cell Death & Disease, 2019)
